Data reported in patent publication US8987217B2, “Modified saponins for the treatment of fungal infections” (The General Hospital Corporation, priority 2010, dated 2015).
Values after ≈ are worked out from the molar mass of the structure shown. “Also recorded” adds a separate entry of the source. Where two headings read alike, the source gives them in different places.

Experiments:
C. albicans isolates = experiment: interaction between A16 and fluconazole (MIC); type: cell-based
Text: Since compound A16 was able to facilitate uptake of PS compounds, we investigated their ability to increase uptake to the commonly used antifungal agent fluconazole. As indicated above, fluconazole and saponins have different target sites, although they both function by altering the fungal cell membrane. […] One of the molecular mechanisms responsible for increased resistance to fluconazole for isolate 98-145 is a homozygous V437I point mutation in the ERG11 gene (White et al., Antimicrob Agents Chemother, 46:1704-1713 (2002)).

C. albicans strains = experiment: MIC by standard CLSI microdilution protocol M27-A; type: cell-based
Procedure: Using the standard Clinical and Laboratory Standards Institute (CLSI) procedure, the in vitro MIC of these two compounds was determined on the following C. albicans strains: DAY185 (the standard strain used throughout the screen), two fluconazole-resistant strains of C. albicans, and an echinocandin-resistant strain of C. albicans (Table 2).
The minimal inhibitory concentration (MIC) was determined for strains DAY185, 98-145, 95-120 (White et al., Antimicrob Agents Chemother, 46:1704-1713 (2002)), and A15-10 (Garcia-Effron et al., Antimicrob Agents Chemother, 53:112-122 (2009)) spectrophotometrically using RPMI 1640 media (Mediatech, Inc.) following the standard CLSI microdilution protocol M27-A (National Committee for Clinical Laboratory Standards, Reference method for broth dilution susceptibility testing of yeasts. Tentative standard M27-A, Villanova, Pa. (1995)). Biofilm assays using identified compounds were conducted as previously described (Richard et al., Eukaryot Cell, 4:1493-1502 (2005)). The biofilm dry mass was determined by drying the silicone squares in a chemical hood, and weighing the resulting biofilm mass subtracting the previously weighed mass of the silicone square. Biofilm pictures were captured using a confocal laser microscope (TCS NT, Leica Microsystems). Cells were grown at 30° C., exposed to PS for 30 min, and then washed with PBS.

[1] = tested on: C. albicans strain DAY185; experiment: in vitro antifungal activity (MIC) in the co-inoculation assay, turbidity read visually; type: cell-based; details: for MIC in vitro: co-inoculation assay, two-fold serial dilutions, C. albicans DAY185; for in vitro growth of C. albicans: screen / dose response
Procedure: (§1) The procedure for the co-inoculation antifungal compound screen were conducted as previously described (Okoli et al., PLoS ONE, 4:e7025 (2009); Tampakakis et al., Nat Protocols, 3:1925-1931 (2008)), using the C. albicans strain DAY185 (Davis et al., Infect Immun, 68:5953-5959 (2000)) and the C. elegans glp-4;sek-1 double mutant.
The determination of the lowest concentration of the selected compounds showing in vitro antifungal activity was accomplished by following the steps detailed in the co-inoculation assay, using two-fold serial dilutions of the test compounds.

C. albicans = experiment: C. elegans-C. albicans co-inoculation assay, nematode survival; type: in vivo; details: for promoting C. elegans survival compared with amphotericin B / maximum nematode survival: dose response; for promoting C. elegans survival compared with amphotericin B: FIG. 2A; for EC50 in vivo: dose that resulted in 50% survival of C. albicans-infected nematodes; for maximum nematode survival: C. albicans-infected C. elegans
Procedure: as §1
(§2) This assay allows simultaneous assessment of a compound's potential toxicity and the ability to promote the survival of the nematode in the presence of C. albicans, including modes of action not traditionally considered in antifungal assays such as impeding a fungal virulence factor or promoting host immune response. We performed a screen of 2,560 natural products representing a fraction of the Analyiticon Discovery compound collection (ac-discovery.com) housed at the Broad Institute of Harvard and MIT (Cambridge, Mass.). […] These natural products identified in the primary screen were retested and confirmed (FIG. 1; Table 1). […] Moreover, although the antifungal effects of some of these saponins have been reported (Sata et al., Biosci Biotechnol Biochem, 62:1904-1911 (1998); Ohtani et al., Phytochem, 33:83-86 (1993)), their efficacy against Candida spp. has not been studied.
After confirmation of these hits, dose response experiments were conducted to determine the concentration that provided maximum nematode survival. The compounds conferred a range of nematode survival from 27% (compound A6) to 93% (compounds A2, A7, A24, and A25), however, with the exception of A6, all compounds conferred a nematode survival over 65% (FIG. 1).

C. elegans = experiment: toxicity to the nematode in dose response experiments; details: for toxicity to the nematode: dose response experiments, higher concentrations
Text: as §2
Representatives of the saponins family are able to disrupt cellular membranes and the lytic activity on erythrocytes has been used as an assay for some saponins Francis et al., British Journal of Nutrition, 88:587-605 (2002)). This property is derived from the affinity of some saponins for binding cholesterol forming insoluble pores composed of the sterol and saponins (Bangham et al., Nature, 196:952-953(1962); Glauert et al., Nature, 196:953-955 (1962)). […] The dose-response experiments previously used to determine the EC50 and approximate the MIC can also indicate if the saponins maybe toxic to C. elegans and potentially to mammalian cells.

C. albicans DAY185 = details: at the concentrations used, yeast cells; cited from earlier work

OC(Cn1cncn1)(Cn1cncn1)c1ccc(F)cc1F [Fluconazole]
MIC (C. albicans isolates; Candida albicans, C. albicans isolate DAY185, read-out: MIC of fluconazole alone): 2 µg/mL
MIC of fluconazole in combination with A16 (C. albicans isolates; DAY185, subinhibitory A16 (4 μg/mL)): 1 µg/mL
sensitivity to fluconazole treatment in the presence of A16 (C. albicans isolates; two C. albicans isolates with increased resistance to fluconazole): no increase in sensitivity
MIC (C. albicans strains; Candida albicans, C. albicans DAY185, read-out: MIC): 2 µg/mL (≈ 6.53 µM)
MIC (C. albicans strains; Candida albicans, echinocandin-resistant strain A15, read-out: MIC): 2 µg/mL (≈ 6.53 µM)
MIC (C. albicans strains; Candida albicans, fluconazole-resistant strain 95-120, read-out: MIC): 32 µg/mL (≈ 104 µM)
MIC (C. albicans strains; Candida albicans, fluconazole-resistant strain 98-145, read-out: MIC): > 128 µg/mL

CC1CC[C@@]2(OC1)O[C@H]1CC3C4CC=C5C[C@@H](O[C@@H]6O[C@H](CO)[C@@H](O[C@@H]7O[C@@H](C)[C@H](O)[C@@H](O)[C@H]7O[C@@H]7O[C@@H](C)[C@H](O)[C@@H](O)[C@H]7O)[C@H](O)[C@H]6O)CC[C@]5(C)C4CC[C@]3(C)[C@H]1[C@@H]2C (some centres unmarked) [A20]
MIC in vitro [1]: 4.8 µg/mL (≈ 5.52 µM)
promoting C. elegans survival compared with amphotericin B (C. albicans): as effective as amphotericin B
EC50 in vivo (C. albicans): 4.8 µg/mL (≈ 5.52 µM)

CC1CC[C@@]2(OC1)O[C@H]1CC3C4C[C@@H](O)C5C[C@@H](O[C@@H]6O[C@H](CO)[C@H](O[C@@H]7O[C@H](CO)[C@@H](O)[C@H](O[C@@H]8OC[C@@H](O[C@@H]9O[C@H](CO)[C@@H](O)[C@H](O)[C@H]9O)[C@H](O)[C@H]8O)[C@H]7O[C@@H]7O[C@H](CO)[C@@H](O)[C@H](O)[C@H]7O)[C@H](O)[C@H]6O)CC[C@]5(C)C4CC[C@]3(C)[C@H]1[C@@H]2C (some centres unmarked) [A24]
MIC in vitro [1]: 13.3 µg/mL (≈ 11 µM)
toxicity to the nematode (C. elegans): decrease in nematode survival
concentrations showing evidence of toxicity to the worms (C. elegans; in vivo): > 27000 ng/mL
maximum nematode survival (C. albicans): 93%
EC50 in vivo (C. albicans): 13.3 µg/mL (≈ 11 µM)

C/C=C(/C)C(=O)O[C@H]1CC(C)(C)C[C@H]2C3=CCC4[C@@]5(C)CC[C@H](O[C@@H]6O[C@H](C(=O)O)[C@@H](O[C@@H]7O[C@H](CO)[C@H](O)[C@H](O)[C@H]7O[C@@H]7O[C@H](CO)[C@@H](O)[C@H](O)[C@H]7O)[C@H](O)[C@H]6OC6O[C@@H](C)[C@H](O)[C@@H](O)[C@H]6O)C(C)(C)C5CC[C@@]4(C)[C@]3(C)[C@@H](OC(C)=O)[C@@H](O)[C@@]12COC(C)=O (some centres unmarked) [A25]
MIC in vitro [1]: 28.7 µg/mL (≈ 22 µM)
in vitro growth of C. albicans [1]: completely inhibited
maximum nematode survival (C. albicans): 93%
EC50 in vivo (C. albicans): 28.7 µg/mL (≈ 22 µM)

C[C@@H]1O[C@@H](O[C@H]2[C@H](O[C@H]3[C@H](O[C@H]4[C@H](O)[C@@H](O[C@@H]5O[C@H](CO)[C@@H](O)[C@H](O)[C@H]5O)[C@H](O[C@H]5CC[C@@]6(C)C(CC[C@]7(C)C6CC[C@]68OCC9(CCC(C)(C)CC96)[C@H](O)C[C@]87C)C5(C)C)O[C@@H]4C(=O)O)O[C@H](CO)[C@H](O)[C@@H]3O)O[C@@H](C)[C@H](O)[C@H]2O)[C@H](O)[C@H](O)[C@H]1O (some centres unmarked) [A2, Sakurasosaponin]
MIC in vitro [1]: 27.5 µg/mL (≈ 22 µM)
in vitro growth of C. albicans [1]: completely inhibited
maximum nematode survival (C. albicans): 93%
EC50 in vivo (C. albicans): 55.1 µg/mL (≈ 44 µM)

CC1CC[C@@]2(OC1)O[C@H]1CC3C4CC=C5C[C@@H](O[C@@H]6O[C@H](CO)[C@@H](O[C@@H]7O[C@@H](C)[C@H](O)[C@@H](O)[C@H]7O)[C@H](O)[C@H]6O[C@@H]6O[C@@H](C)[C@H](O)[C@@H](O)[C@H]6O)CC[C@]5(C)C4CC[C@]3(C)[C@H]1[C@@H]2C (some centres unmarked) [A11]
MIC in vitro [1]: 38.9 µg/mL (≈ 44.8 µM)
EC50 in vivo (C. albicans): 38.9 µg/mL (≈ 44.8 µM)

O=C1OC2(c3cc(I)c(O)c(I)c3Oc3c2cc(I)c(O)c3I)c2c(Cl)c(Cl)c(Cl)c(Cl)c21 [RB, Rose Bengal]
PDI effect of photosensitizer alone (C. albicans DAY185): no statistically significant PDI effect

C[C@@H]1[C@H](O)[C@@H](C)/C=C/C=C/C=C/C=C/C=C/C=C/C=C/[C@H](O[C@@H]2O[C@H](C)[C@@H](O)[C@H](N)[C@@H]2O)C[C@@H]2O[C@](O)(C[C@@H](O)C[C@@H](O)[C@H](O)CC[C@@H](O)C[C@@H](O)CC(=O)O[C@H]1C)C[C@H](O)[C@H]2C(=O)O [Amphotericin B]
MIC in vitro [1]: 1.0 µg/mL (≈ 1.08 µM)
MIC (C. albicans strains; C. albicans DAY185): 2 µg/mL (≈ 2.16 µM)
MIC (C. albicans strains; echinocandin-resistant strain A15): 2 µg/mL (≈ 2.16 µM)
MIC (C. albicans strains; fluconazole-resistant strain 95-120): 2 µg/mL (≈ 2.16 µM)
MIC (C. albicans strains; fluconazole-resistant strain 98-145): 2 µg/mL (≈ 2.16 µM)
maximum nematode survival (C. albicans): 93%
EC50 in vivo (C. albicans): 2.0 µg/mL (≈ 2.16 µM)

C/C=C(/C)C(=O)O[C@H]1[C@H](OC(=O)/C(C)=C\C)[C@]2(CO)[C@H](O)C[C@]3(C)C(=CCC4[C@@]5(C)CC[C@H](OC6OC(C(=O)O)C(O)C(OC7OC(C)C(O)C(OC8OC(CO)C(O)C(O)C8O)C7O)C6O)C(C)(C)C5CC[C@]43C)[C@@H]2CC1(C)C (some centres unmarked) [A7]
MIC in vitro [1]: 3.1 µg/mL (≈ 2.72 µM)
in vitro growth of C. albicans [1]: completely inhibited
toxicity to the nematode (C. elegans): decrease in nematode survival; also recorded: maybe toxic to the nematode
maximum nematode survival (C. albicans): 93%
promoting C. elegans survival compared with amphotericin B (C. albicans): as effective as amphotericin B
EC50 in vivo (C. albicans): 3.1 µg/mL (≈ 2.72 µM)

CC1(C)CC[C@]2(C(=O)O)CC[C@]3(C)C(=CCC4[C@@]5(C)CC[C@H](OC6O[C@H](CO)[C@@H](O)[C@H](O[C@@H]7O[C@H](CO)[C@@H](O)[C@H](O)[C@H]7O)[C@H]6O)C(C)(C)C5CC[C@]43C)[C@@H]2C1 (some centres unmarked) [A6, Arvensoside B]
maximum nematode survival (C. albicans): 27%

C=Cc1c(C)c2cc3nc(c(CC(=O)O)c4[nH]c(cc5nc(cc1[nH]2)C(C)=C5CC)c(C)c4C(=O)O)[C@@H](CCC(=O)O)[C@@H]3C [ce6, chlorin(e6)]
PDI effect of photosensitizer alone (C. albicans DAY185): no statistically significant PDI effect

CC1CC[C@@]2(OC1)O[C@H]1CC3C4C[C@@H](O)C5C[C@@H](O[C@@H]6O[C@H](CO)[C@H](O[C@@H]7O[C@H](CO)[C@@H](O)[C@H](O[C@@H]8OC[C@@H](O)[C@H](O)[C@H]8O)[C@H]7O[C@@H]7O[C@H](CO)[C@@H](O)[C@H](O)[C@H]7O)[C@H](O)[C@H]6O)CC[C@]5(C)C4CC[C@]3(C)[C@H]1[C@@H]2C (some centres unmarked) [A8]
MIC in vitro [1]: 5.8 µg/mL (≈ 5.52 µM)
EC50 in vivo (C. albicans): 23.1 µg/mL (≈ 22 µM)

CC[C@H](C)C[C@H](C)CCCCCCCCC(=O)N[C@H]1C[C@@H](O)[C@@H](NCCN)NC(=O)[C@@H]2[C@@H](O)CCN2C(=O)[C@H]([C@H](O)CCN)NC(=O)[C@H]([C@H](O)[C@@H](O)c2ccc(O)cc2)NC(=O)[C@@H]2C[C@@H](O)CN2C(=O)[C@H]([C@@H](C)O)NC1=O [Caspofungin]
MIC (C. albicans strains; Candida albicans, C. albicans DAY185): 2 µg/mL (≈ 1.83 µM)
MIC (C. albicans strains; Candida albicans, echinocandin-resistant strain A15): 8 µg/mL (≈ 7.32 µM)
MIC (C. albicans strains; Candida albicans, fluconazole-resistant strain 95-120): 1 µg/mL (≈ 0.915 µM)
MIC (C. albicans strains; Candida albicans, fluconazole-resistant strain 98-145): 1 µg/mL (≈ 0.915 µM)
